# Source: article PMC10975047, “Antimicrobial Activity of 2-(Piperazin-1-yl)naphtho[2,3-d]thiazole-4,9-dione against Staphylococcus Strains” (Molecules, 2024)
# Biological target: T1, DNA gyrase (Staphylococcus aureus, UniProt P0A0K8+P20831)
# T1 construct: gene gyrA; with DNA gyrase subunit B (GyrB)
# Experiment: DNA gyrase supercoiling assay (H19 dye fluorescence, ProFoldin kit)
# Assay type: biochemical
# T1 sequence (P0A0K8 2-644): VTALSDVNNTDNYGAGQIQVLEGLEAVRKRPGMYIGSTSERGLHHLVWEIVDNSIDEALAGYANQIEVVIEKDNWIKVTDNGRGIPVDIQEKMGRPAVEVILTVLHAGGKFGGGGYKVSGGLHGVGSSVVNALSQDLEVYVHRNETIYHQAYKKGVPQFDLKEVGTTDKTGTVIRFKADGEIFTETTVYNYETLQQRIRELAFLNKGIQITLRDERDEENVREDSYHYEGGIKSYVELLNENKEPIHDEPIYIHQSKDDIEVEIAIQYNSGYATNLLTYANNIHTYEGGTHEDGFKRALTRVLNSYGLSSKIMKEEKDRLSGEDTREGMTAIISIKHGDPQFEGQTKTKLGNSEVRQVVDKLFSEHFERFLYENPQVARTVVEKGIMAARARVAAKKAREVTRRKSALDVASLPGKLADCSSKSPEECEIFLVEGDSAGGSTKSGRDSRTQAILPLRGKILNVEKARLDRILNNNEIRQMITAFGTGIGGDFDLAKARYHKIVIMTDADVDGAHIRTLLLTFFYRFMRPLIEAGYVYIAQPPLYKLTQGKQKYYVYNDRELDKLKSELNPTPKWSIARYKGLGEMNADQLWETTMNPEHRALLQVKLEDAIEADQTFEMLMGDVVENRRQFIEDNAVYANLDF
# T1 sequence (P20831 whole entry): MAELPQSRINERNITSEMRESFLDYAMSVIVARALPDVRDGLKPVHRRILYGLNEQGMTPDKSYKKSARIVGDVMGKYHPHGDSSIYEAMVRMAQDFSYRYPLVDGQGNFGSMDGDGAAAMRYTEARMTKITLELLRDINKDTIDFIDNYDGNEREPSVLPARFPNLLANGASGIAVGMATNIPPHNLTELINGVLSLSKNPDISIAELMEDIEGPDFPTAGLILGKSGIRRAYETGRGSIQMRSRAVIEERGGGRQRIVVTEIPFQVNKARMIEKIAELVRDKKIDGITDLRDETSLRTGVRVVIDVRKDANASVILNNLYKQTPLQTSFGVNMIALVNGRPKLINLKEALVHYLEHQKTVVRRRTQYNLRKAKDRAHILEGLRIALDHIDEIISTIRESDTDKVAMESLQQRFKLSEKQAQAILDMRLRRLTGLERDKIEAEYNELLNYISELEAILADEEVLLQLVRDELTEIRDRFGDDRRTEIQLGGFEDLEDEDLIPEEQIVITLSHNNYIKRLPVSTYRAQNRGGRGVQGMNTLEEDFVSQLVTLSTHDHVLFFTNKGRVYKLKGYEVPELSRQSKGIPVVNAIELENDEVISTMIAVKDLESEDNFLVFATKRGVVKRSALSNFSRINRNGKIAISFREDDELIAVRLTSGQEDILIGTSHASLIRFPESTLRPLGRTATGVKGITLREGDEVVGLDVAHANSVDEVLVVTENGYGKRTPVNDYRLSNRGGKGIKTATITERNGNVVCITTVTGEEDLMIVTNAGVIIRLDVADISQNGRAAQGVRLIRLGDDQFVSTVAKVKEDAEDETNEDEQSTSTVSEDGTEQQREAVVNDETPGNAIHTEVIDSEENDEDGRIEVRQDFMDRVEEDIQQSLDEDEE
smiles,measurement,value
"O=C1c2ccccc2C(=O)c2sc(N3CCNCC3)nc21 [PNT, 2-(piperazin-1-yl)naphtho[2,3-d]thiazole-4,9-dione]",IC50,372 µM
